Earlier results as cited in patent publication US20110189319A1, “Lifeforce liquid supplement” (priority 2010, published 2011).
Like-named read-outs stand apart in the source and are kept apart here.

Assays:
AMD patients = details: 10 mg daily, 12 months
[1] = in vivo
[2] = system: permanent middle cerebral artery occlusion in rats; details: rats, 2,3,5-triphenyltetrazolium-chloride staining
women = details: highest versus least dietary intake
[3] = system: female health professionals; details: about 262.4 versus 4.4 milligrams per day
[4] = in vivo; remark: listed apart in the source
[5] = system: patients with Alzheimer disease; details: 1,000 mg/day
[6] = system: patients affected by chronic cerebrovasculopathy; details: 1000 mg/day i.m.
[7] = system: healthy female volunteers; details: 40 mg three times a day, two days
[8] = system: patients suffering from mild to moderate dementia; details: 10 or 20 mg three times a day, sixteen weeks
[9] = system: patients suffering from multiple cerebral infarcts
[10] = target: phosphodiesterase (PDE) type-1
[11] = system: elderly patients with chronic cerebral dysfunction
[12] = not given; remark: listed apart in the source
[13] = system: elderly with age-associated memory impairment; details: in vivo
young adults = details: 300 mg each day for a month, neuroticism scores above the median
[14] = system: healthy elderly volunteers; details: 100 mg×3/day p.o., 12 weeks
exercise capacity = details: 750 mg soybean-derived daily for 10 d
lymphocytes = details: relative to beta-carotene
[15] = oral, healthy male volunteers, PET
[16] = 2,038 subjects without hypertension
[17] = 2,238 subjects not using drugs, supplements or special diet
[18] = high (0.67% kcal) versus lower intake, all participants
[19] = 100 microM, ascorbate/Fe2+ oxidative stress

## CC1=C[C@H](O)CC(C)(C)[C@H]1/C=C/C(C)=C/C=C/C(C)=C/C=C/C=C(C)/C=C/C=C(C)/C=C/C1=C(C)C[C@@H](O)CC1(C)C [Lutein]
AMD patients
  increase in macular pigment density relative to placebo: 50%
  visual function (glare recovery, contrast sensitivity, visual acuity) vs. placebo: significant improvements
[1]
  bioavailability: approximately 70%

## C[C@]12N[C@H](Cc3ccccc31)c1ccccc12 [MK-801]
[2]
  decrease of infarct volume compared to control: 18%

## omega-3 fatty acid
INTERMAP participants; [16]
  average diastolic reduction: 0.92 mm Hg
  average systolic reduction: 0.91 mm Hg
INTERMAP participants; [17]
  reduction in diastolic blood pressure: 0.98 mm Hg
  reduction in systolic blood pressure: 1.01 mm Hg
INTERMAP participants; [18]
  lower average diastolic blood pressure: 0.57 mm Hg
  lower average systolic blood pressure: 0.55 mm Hg
women
  lower risk of dry eye syndrome: 17%

## vitamin E
[3]
  less likely to develop cataracts: 14%

## CC(C)=CCC[C@](C)(O[C@@H]1O[C@H](CO[C@@H]2O[C@H](CO)[C@@H](O)[C@H](O)[C@H]2O)[C@@H](O)[C@H](O)[C@H]1O)[C@H]1CC[C@]2(C)[C@@H]1[C@H](O)C[C@@H]1[C@@]3(C)CC[C@H](O[C@@H]4O[C@H](CO)[C@@H](O)[C@H](O)[C@H]4O[C@@H]4O[C@H](CO)[C@@H](O)[C@H](O)[C@H]4O)C(C)(C)[C@@H]3CC[C@]12C [Rb1, Ginsenoside Rb1]
[4]; po
  oral bioavailability: low oral bioavailability

## COc1ccc2c(=O)oc3c(OC)cc(CCN(C)C)c4c(=O)oc1c2c34 [taspine]
Herpes virus
  activity against herpes virus: active

## C[N+](C)(C)CCOP(=O)(O)OP(=O)([O-])OC[C@H]1O[C@@H](n2ccc(N)nc2=O)[C@H](O)[C@@H]1O [Citicoline, cytidine 5′-diphosphocholine]
[5]
  tolerability: well tolerated
[6]
  side-effects: No side-effects were detected
In vivo
  bioavailability: greater than 90%
Oral doses, healthy adults
  excreted in feces: less than one
oral, biphasic
  first plasma peak after ingestion: one
  second larger plasma peak post-dosing: 24 h

## CCOC(=O)C1=C[C@]2(CC)CCCN3CCc4c(n1c1ccccc41)[C@@H]32 [Vinpocetine]
[7]
  memory versus placebo: significantly improved
Rat brain synaptosomes; [19]
  decrease of DCFH2-DA fluorescence: about 50%
  decrease of DHR 123 fluorescence: ~83%
Rat brain synaptosomes; concentration-dependent
  ascorbate/Fe2+ stimulated consumption of oxygen and TBARS accumulation: inhibited
[8]
  cognitive improvement versus placebo: Statistically significant cognitive improvements
  side effects: no clinically relevant side effects
[9]; in vivo
  side effects: No serious side effect
[9]; three months
  digit span backward test: did not show any significant worsening
[9]; transcranial Doppler
  flow velocities after breath holding, acute phase, versus placebo: significantly lower
[2]
  decrease of infarct volume compared to control: 42%
[10]
  IC50: ~10 µM
[11]; 10 mg tid thirty days, then 5 mg tid sixty days
  cognitive evaluations versus placebo: scored consistently better in all cognitive evaluations
[11]; ninety-day trial
  side effects: No serious side effects
[12]; given with food
  absorption of an ingested dose: up to 60%
[12]; in vivo
  elimination half-life following ingestion: one to two
  levels peak in the bloodstream after ingestion: an hour and a half
  time to peak plasma levels after ingestion: one to one and a half
[12]; on an empty stomach
  absorption of an ingested dose: ≥ 7%
[12]; urine
  time in which most of a dose is excreted as apovincaminic acid: ≤ 24 h

## Phosphatidylserine
[13]
  safe dosage for older persons: ≤ 200 mg three times daily
Young adults
  feelings of stress and mood: feeling less stressed and having a better mood
[14]
  outcome measures of age related cognitive decline: significant drug over time effect
Exercise capacity
  exercise capacity: improved exercise capacity

## CC(C)=CCC[C@](C)(O[C@@H]1O[C@H](CO)[C@@H](O)[C@H](O)[C@H]1O)[C@H]1CC[C@]2(C)[C@@H]1[C@H](O)C[C@@H]1[C@@]3(C)CC[C@H](O)C(C)(C)[C@@H]3[C@@H](O[C@@H]3O[C@H](CO)[C@@H](O)[C@H](O)[C@H]3O)C[C@]12C [Rg1, ginsenoside Rg1]
[4]
  elimination from the blood: rapidly eliminated from the blood

## CC(C)=CCC/C(C)=C/C=C/C(C)=C/C=C/C(C)=C/C=C/C=C(C)/C=C/C=C(C)/C=C/C=C(\C)CCC=C(C)C [Lycopene]
lymphocytes
  protection of lymphocytes from membrane damage and cell death: twice as efficiently as beta-carotene

## CCOC(=O)C1=C[C@]2(CC)CCCN3CCc4c(n1c1ccccc41)[C@@H]32 [[11C] vinpocetine]
[15]
  average maximum brain uptake: 0.7 % of the administered total dose
